Paper PMC12718261, “New Fluorescent Synthetic Retinoids as Potential RAR Agonists with Anticancer, Molecular Docking and ADME Assessments” (Journal of Fluorescence, 2025)
Where “and” joins values, the source holds several entries; their conditions need not be identical. Equal entries are not always repeated.

How the values were obtained:
Format in all cases: cell-based
Caco-2 cancer cells [1] = assay: Apoptosis assay Annexin V/PI flow cytometry; conditions: Caco-2, IC50 dose, 24 h, AV/PI
Method: The standard protocol used in HSBR was performed. […] Cells were rinsed with 1 mL of binding buffer; the cells were again suspended in phosphate-buffered saline (PBS) (Lonza). 100 µL of cell suspension was incubated with 1 µL of FITC-labeled Annexin-V and 5 µL of PI for 15 min at 4 °C in the dark. The suspension was then mixed with 400 µL of ice-cold binding buffer, and each sample's apoptotic cells were analyzed using a Cytoflex flow cytometer (Beckman Coulter, USA), and CytExpert software (version 2.4.0.28) was employed for data analysis.

Caco-2 cancer cells [2] = assay: Cell cycle assay PI staining flow cytometry; conditions: Caco-2, IC50 dose, 24 h
Method: The standard protocol used in HSBR was performed. […] Cells were concentrated at 1500 xg and suspended in 50 μg/ml propidium iodide (PI) staining solution and 20 µg/ml RNaseA to identify cells with a sub-G1 DNA content. Cytoflex flow cytometer (Beckman Coulter, USA) was used, and CytExpert software (version 2.4.0.28) was employed for data analysis. The gating strategy used to eliminate doublets depends on plotting the population against a 2D contour plot in four quadrants, referred to as Q1(LL), Q2 (LR), Q3 (UL), and Q4 (UR), that illustrates the spread of the Annexin-FITC-H core cell population against PI PE-H.

[3] = test system: RAR-β gene in Caco-2 cells; assay: Gene expression RT-qPCR; conditions: Caco-2, IC50 dose, 24 h, relative to 0.1% DMSO, normalized to GAPDH
Method: The gene expression analysis was performed using real-time quantitative PCR (RT-qPCR), as previously documented [38]. After incubation, cells were harvested, and total RNA was extracted using the Favor-PrepTM Blood/Cultured Cell Total RNA Purification Mini kit (Favorgen Biotech Corp., Ping-Tung, Taiwan). The purified RNA was then reverse transcribed into the first-strand cDNA using the Revert Aid First-Strand cDNA Synthesis Kit (Thermo Scientific, Waltham, MA, USA). […] SYBR® Green qPCR Kit (Willowfort, Nottingham, UK). Differential gene expression was performed using the 2ˆ^−ΔΔCT method utilizing GAPDH as a reference gene [39].

HCT-116 = assay: MTT anti-proliferative assay; conditions: Homo sapiens; HCT-116, MTT, 24 h, mean ± SEM
Method: (§1) The antiproliferation and cytotoxicity were assessed using 3-(4,5-dimethylthiazol-2-yl)−2,5-diphenyltetrazolium bromide (MTT, Serva) colorimetric assay. All tested cancer cell lines were seeded at a density of 20,000 cells per well in 96-well plates and allowed to adhere overnight. The attached cells were treated with five serial dilutions (100, 50, 5, 0.5, and 0.1 μM) in triplicate. These concentrations were prepared by diluting the stock solutions with serum-free culture media. The negative control cells were those treated with 0.1% DMSO solvent alone. The treated cells were handled in reduced light and maintained under standard culture growth conditions for 24 h. After the incubation period, MTT powder was prepared as a stock solution (5 mg/mL), and 20 μL of the MTT working reagent (final concentration 0.5 mg/mL) was added to each well. This was followed by incubation with MTT reagent for 4 h in a humidified atmosphere (37 °C, 5% CO2) with subsequent addition of 150 μL of DMSO solubilizing solvent and incubation for 20 min. The absorbance of solubilized violet formazan crystals was measured at 570 nm with a Biotek 800 TS microplate reader. IC50 was calculated as the concentration of retinoid that produced 50% cell growth inhibition. For cytotoxicity assessment, WI-38 normal human fibroblast cells were used for the calculation of SI, which is the ratio of IC50 retinoid (WI-38)/IC50 retinoid (cancer cell line).

Caco-2 = assay: MTT anti-proliferative assay; conditions: Homo sapiens; Caco-2, MTT, 24 h, mean ± SEM
Method: as §1

HepG-2 = assay: MTT anti-proliferative assay; conditions: Homo sapiens, HepG2; HepG-2, MTT, 24 h, mean ± SEM
Method: as §1

PC-3 = assay: MTT anti-proliferative assay; conditions: Homo sapiens; PC-3, MTT, 24 h, mean ± SEM
Method: as §1

MDA-MB231 = assay: MTT anti-proliferative assay; conditions: Homo sapiens, MDA-MB-231, 24 h, mean ± SEM
Method: as §1

MCF-7 = assay: MTT anti-proliferative assay; conditions: Homo sapiens, MCF7; MCF-7, MTT, 24 h, mean ± SEM
Method: as §1

[4] = test system: WI-38 normal human fibroblast cells; assay: MTT cytotoxicity assay on normal fibroblasts; conditions: WI-38 normal fibroblast cells, 24 h, mean ± SEM
Method: as §1

[5] = test system: calcium-independent ATPases in Caco-2 cells; assay: Calcium-independent ATPase activity, malachite green colorimetric; conditions: Caco-2, IC50 dose, 24 h; 0.1% DMSO control normalized to 100%
Method: (§2) The total activity of ATPase and calcium-independent ATPase activity was quantified colorimetrically as described by our previous protocol. […] The inorganic phosphate (Pi) liberated after the hydrolysis of ATP by ATPase enzymes was complexed into a colored product in one step after the addition of a mixed reagent containing malachite green, ammonium molybdate, and polyvinyl alcohol (2:1:1). The intensity of absorbance at 630 nm was measured using the BioTek 800 TS absorbance plate reader (USA) and was directly proportional to the quantity of liberated Pi. In order to eliminate any color due to the non-enzymatic hydrolysis of ATP, control reactions were made using only ATP in the reaction buffer, and the absorbance intensity was then subtracted from the readings of the samples and standards.

[6] = test system: total ATPase in Caco-2 cells; assay: Total ATPase activity, malachite green colorimetric; conditions: Caco-2, IC50 dose, 24 h; 0.1% DMSO control normalized to 100%
Method: as §2

[7] = test system: Caspase-3 gene in Caco-2 cells; assay: Gene expression RT-qPCR; conditions: Caco-2, IC50 dose, 24 h, relative to 0.1% DMSO, normalized to GAPDH
Method: (§3) The gene expression analysis was performed using real-time quantitative PCR (RT-qPCR), as previously documented. After incubation, cells were harvested, and total RNA was extracted using the Favor-PrepTM Blood/Cultured Cell Total RNA Purification Mini kit (Favorgen Biotech Corp., Ping-Tung, Taiwan). The purified RNA was then reverse transcribed into the first-strand cDNA using the Revert Aid First-Strand cDNA Synthesis Kit (Thermo Scientific, Waltham, MA, USA). All qPCR reactions were carried out using the […] SYBR® Green qPCR Kit (Willowfort, Nottingham, UK). Differential gene expression was performed using the 2ˆ^−ΔΔCT method utilizing GAPDH as a reference gene.

[8] = test system: CRABPI gene in Caco-2 cells; assay: Gene expression RT-qPCR; conditions: Caco-2, IC50 dose, 24 h, relative to 0.1% DMSO, normalized to GAPDH
Method: as §3

[9] = test system: RAR-γ gene in Caco-2 cells; assay: Gene expression RT-qPCR; conditions: Caco-2, IC50 dose, 24 h, relative to 0.1% DMSO, normalized to GAPDH
Method: as §3

[10] = test system: CRABPII gene in Caco-2 cells; assay: Gene expression RT-qPCR; conditions: Caco-2, IC50 dose, 24 h, relative to 0.1% DMSO, normalized to GAPDH
Method: as §3

[11] = test system: Cyt-C gene in Caco-2 cells; assay: Gene expression RT-qPCR; conditions: Caco-2, IC50 dose, 24 h, relative to 0.1% DMSO, normalized to GAPDH
Method: as §3

IL-10 in Caco-2 cells = assay: Intracellular IL-10 ELISA; conditions: Caco-2, IC50 dose, 24 h, vs DMSO control
Method: For IL-10. Moreover, IL-6 measurements and cell pellets were lysed using RIPA buffer, and the total lysate was collected. The total protein was estimated to use commercially available ELISA kits as per the manufacturer’s instructions. ELISA plates were coated and used for analysis according to the previously used protocol using capture antibody (IL-6, Cat. No.: RAB0307 [57] and IL-10, Cat. No.: RAB1060 [58]), followed by blocking using 5% BSA in PBS-Tween buffer for 1 h. After incubating with samples for 2 h, a secondary […] antibody was added and kept for incubation for 2 h. Streptavidin-HRP reagent was then added to the plates, followed by the addition of TMB solution. Finally, the reaction was stopped using 2 N H2SO4, and the color was measured using the BioTek 800 TS absorbance plate reader (USA) at 450 nm wavelengths, and the protein was quantified.

[12] = test system: different cancer cell lines; assay: MTT anti-proliferative assay, whole panel statements; conditions: 24 h, read-out: IC50 across different cancer cell lines
Method: as §1, with “For cytotoxicity assessment, WI-38 normal human fibroblast cells were used for the calculation of SI, which is the ratio of IC50 retinoid (WI-38)/IC50 retinoid (cancer cell line).” left out

[13] = test system: RAR-α, RAR-β, RAR-γ proteins in Caco-2 cells; assay: Western blotting of RAR proteins; conditions: Caco-2, IC50 dose, 24 h, normalized to β-actin
Method: Using the previously outlined protocol, the western blot technique was used to determine the expression of RAR-α (Cat. No. E6Z6 K, cell signaling, USA), RAR-β (Cat. No. PP-H4338-00, R&D systems, USA) and RAR- γ (Cat. No. D3 A4, cell signaling, USA) in Caco-2 cells. […] Following incubation, floating adhered cells were separated and lysed. The Caco-2 cell lysate was immediately collected, subjected to sonication, and centrifuged for 15 min at 12,000 × g. The total soluble protein content was measured colorimetrically using the PierceTM 660 nm Assay (Thermo Scientific, Waltham, MA, USA) after the resultant supernatant was separated. The Gel documentation system (Geldoc-it, UVP, England) was applied for data analysis using Totallab analysis software (Ver.1.0.1) (ww.totallab.com).

| IC50 (HCT-116) [µM] | IC50 (Caco-2) [µM] | IC50 (PC-3) [µM] | IC50 (MDA-MB231) [µM] | IC50 (MCF-7) [µM] | SMILES | % Early apoptotic cells (LR) (Caco-2 cancer cells [1]) | % Late apoptotic cells (UL) (Caco-2 cancer cells [1]) [%] | % Necrotic cells (UR) (Caco-2 cancer cells [1]) | % Viable cells (LL) (Caco-2 cancer cells [1]) [%] | % G0-G1 (Caco-2 cancer cells [2]) [%] | % G2M (Caco-2 cancer cells [2]) [%] | % S (Caco-2 cancer cells [2]) [%] | % SubG0-G1 (Caco-2 cancer cells [2]) | IC50 (HepG-2) [µM] | IC50 [4] [µM] | ca+2-independent ATPase activity [5] [%] | total ATPase activity [6] [%] | caspase-3 gene expression fold change [7] | CRABPI gene expression fold change [8] [fold] | Cyt-C gene expression fold change [11] | other results |
| --- | --- | --- | --- | --- | --- | --- | --- | --- | --- | --- | --- | --- | --- | --- | --- | --- | --- | --- | --- | --- | --- |
| 10.2 ± 3.8 | 9.58 ± 1.1 | 18.9 ± 4 | 2.33 ± 0.6 | 13.8 ± 2.4 | COC(=O)c1ccc2cc(-c3ccc4c(c3)CCCN4)ccc2c1 [Compound 3a, Methyl 6-(1,2,3,4-tetrahydroquinolin-6-yl)−2-naphthoate] | 47.37 ± 3.9 % | 0.30 | 51.38 ± 3.6 % | 0.95 | 23.90 ± 8.4 | 2.41 ± 0.3 | 4.13 ± 1.2 | 70.02% and 70.02 ± 4.7 % | 6.37 ± 1 | 39.2 ± 4.7 | 40.0 | 43.9 | 8.5 ± 0.4 fold | 2.4 ± 0.1 | did not show any overexpression | intracellular IL-10 level change (IL-10 in Caco-2 cells): additional significant reduction; RAR-γ gene expression fold change [9]: 4.5 ± 0.2 fold |
| 52.9 ± 4.3 | 14.4 ± 0.36 | 4.6 ± 1.7 | 2.09 ± 0.1 | 12.2 ± 3.2 | COC(=O)c1ccc2cc(-c3ccc4c(c3)CCCO4)ccc2c1 [Compound 3b, Methyl 6-(chroman-6-yl)−2-naphthoate] | 60.06 ± 5.4 % | 0.49 | 37.78% and 37.78 ± 2.7 % | 1.68 ± 0.1 | 19.65 ± 2.7 | 1.74 ± 0.1 | 3.31 ± 1.1 | 75.62% and 75.62 ± 7.4 % | 12 ± 2.6 | 29.2 ± 2.1 | 36.2 | 41 | did not show any significant increase | 9.9 ± 0.4 | did not show any overexpression | IC50 [12]: ≤ 50 µM; RAR-γ gene expression fold change [9]: 2.4 ± 0.1 fold |
| 133 ± 6.8 | 47.3 ± 6.2 | 2.78 ± 0.3 | 2.42 ± 1.3 | 64.8 ± 5.4 | O=C(O)c1ccc2cc(-c3ccc4c(c3)CCCN4)ccc2c1 [Compound 4a, 6-(1,2,3,4-tetrahydroquinolin-6-yl)−2-naphthoic acid] | 23.44% and 23.44 ± 2.3 % | 0.37 | 75.13% and 75.13 ± 6.8 % | 1.06 ± 0.1 | 18.77 ± 4.8 | 2.26 ± 0.4 | 3.53 ± 1.3 | 75.83% and 75.83 ± 6.4 % | 53 ± 4.9 | 43.7 ± 4.2 | 13.9 | 23.7 | did not show any significant increase | – | did not show any overexpression | intracellular IL-10 level change (IL-10 in Caco-2 cells): did not show any significant reduction; RAR protein expression (western blot) [13]: overexpression of all RARs |

| SMILES | IC50 (HCT-116) [µM] | IC50 (Caco-2) [µM] | IC50 (PC-3) [µM] | IC50 (MDA-MB231) [µM] | IC50 (MCF-7) [µM] | % Early apoptotic cells (LR) (Caco-2 cancer cells [1]) | % Late apoptotic cells (UL) (Caco-2 cancer cells [1]) [%] | % Necrotic cells (UR) (Caco-2 cancer cells [1]) | % Viable cells (LL) (Caco-2 cancer cells [1]) [%] | % G0-G1 (Caco-2 cancer cells [2]) [%] | % G2M (Caco-2 cancer cells [2]) [%] | % S (Caco-2 cancer cells [2]) [%] | % SubG0-G1 (Caco-2 cancer cells [2]) | IC50 (HepG-2) [µM] | IC50 [4] [µM] | ca+2-independent ATPase activity [5] [%] | total ATPase activity [6] [%] | caspase-3 gene expression fold change [7] | CRABPI gene expression fold change [8] [fold] | Cyt-C gene expression fold change [11] | other results |
| --- | --- | --- | --- | --- | --- | --- | --- | --- | --- | --- | --- | --- | --- | --- | --- | --- | --- | --- | --- | --- | --- |
| CC1=C(/C=C/C(C)=C/C=C/C(C)=C/C(=O)O)C(C)(C)CCC1 [ATRA, all-trans-retinoic acid, reference compound] | 38.8 ± 0.9 | 11.4 ± 0.3 | 2.21 ± 0.1 | 10.4 ± 0.2 | 4.93 ± 0.4 | 1.20 ± 0.1% | 0.03 | 98.74% and 98.74 ± 8.7 % | 0.02 | 17.37 ± 6.1 | 3.05 ± 0.7 | 5.39 ± 1.4 | 74.63 ± 5.8 % | 16 ± 1.3 | 46.9 ± 2.8 | 39.4 | 42.2 | 1.6 ± 0.1 fold | 1.2 | 7.7 ± 0.3 fold | RAR-β gene expression fold change [3]: 35.3 ± 1.6 fold; RAR-γ gene expression fold change [9]: 4.1 ± 0.2 fold; CRABPII gene expression fold change [10]: no effect |
